Assay results reported in PubChem BioAssay AID248 (DTP/NCI, 2004).
Where “and” joins values, the source holds several entries; their conditions need not be identical. Equal entries are not always repeated. Toxic doses and inconclusive results are not listed.

System: L1210 leukemia ip in BDF1 mice, survival T/C
Assay: NCI In Vivo Anticancer Drug Screen. Data for tumor model L1210 Leukemia (intraperitoneal) in B6D2F1 (BDF1) mice
Settings: endpoint: mean survival time, higher = longer survival
Summary of the method: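 Value reflects the ratio of survival in compound-treated mice to survival in vehicle-treated controls, with both groups carrying the same transplanted tumor.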

[1] = dose: 100.0 mg/kg/injection, schedule: Q01DX009 (ip), vehicle: Klucel (hydroxypropylcellulose) (HPC)
[2] = dose: 100.0 mg/kg/injection, schedule: Q04DX003 (ip), vehicle: Klucel (hydroxypropylcellulose) (HPC)
[3] = dose: 200.0 mg/kg/injection, schedule: Q01DX009 (ip), vehicle: Klucel (hydroxypropylcellulose) (HPC)
[4] = dose: 200.0 mg/kg/injection, schedule: Q04DX003 (ip), vehicle: Klucel (hydroxypropylcellulose) (HPC)
[5] = dose: 400.0 mg/kg/injection, schedule: Q01DX009 (ip), vehicle: Klucel (hydroxypropylcellulose) (HPC)
[6] = dose: 400.0 mg/kg/injection, schedule: Q04DX003 (ip), vehicle: Klucel (hydroxypropylcellulose) (HPC)
[7] = dose: 100.0 mg/kg/injection, schedule: Q04DX003 (ip), vehicle: saline with Tween-80
[8] = dose: 200.0 mg/kg/injection, schedule: Q04DX003 (ip), vehicle: saline with Tween-80
[9] = dose: 400.0 mg/kg/injection, schedule: Q04DX003 (ip), vehicle: saline with Tween-80
[10] = dose: 200.0 mg/kg/injection, schedule: Q01DX009 (ip), vehicle: saline with Tween-80
[11] = dose: 400.0 mg/kg/injection, schedule: Q01DX009 (ip), vehicle: saline with Tween-80
[12] = dose: 100.0 mg/kg/injection, schedule: Q01DX001 (ip), vehicle: carboxymethylcellulose (CMC)
[13] = dose: 200.0 mg/kg/injection, schedule: Q01DX001 (ip), vehicle: carboxymethylcellulose (CMC)
[14] = dose: 50.0 mg/kg/injection, schedule: Q01DX009 (ip), vehicle: saline with Tween-80
[15] = dose: 100.0 mg/kg/injection, schedule: Q01DX009 (ip), vehicle: saline with Tween-80
[16] = dose: 100.0 mg/kg/injection, schedule: Q01DX001 (ip), vehicle: saline
[17] = dose: 200.0 mg/kg/injection, schedule: Q01DX001 (ip), vehicle: saline
[18] = dose: 400.0 mg/kg/injection, schedule: Q01DX001 (ip), vehicle: saline

## Cc1ccc(C)c(NC(=O)N(CC(O)c2ccccc2)C2CCCCC2)c1 (stereo unspecified)
[1]
  T/C: 103 % of control
[2]
  T/C: 96 % of control
[3]
  T/C: 97 % of control
[4]
  T/C: 100 % of control
[5]
  T/C: 95 % of control
[6]
  T/C: 104 % of control

## COc1ncccn1
dose: 75.0 mg/kg/injection, schedule: Q01DX009 (ip), vehicle: saline
  T/C: 93 % of control

## OC(c1cccc(C(O)(C(F)(F)F)C(F)(F)F)c1)(C(F)(F)F)C(F)(F)F
dose: 5.0 mg/kg/injection, schedule: Q01DX001 (ip), vehicle: saline
  T/C: 97 % of control
dose: 10.0 mg/kg/injection, schedule: Q01DX001 (ip), vehicle: saline
  T/C: 92 % of control
dose: 20.0 mg/kg/injection, schedule: Q01DX001 (ip), vehicle: saline
  T/C: 100 % of control
dose: 40.0 mg/kg/injection, schedule: Q01DX001 (ip), vehicle: saline
  T/C: 93 % of control

## COC1OC(COC(=O)c2ccccc2)C(OC(=O)c2ccccc2)C1OC(=O)c1ccccc1 (stereo unspecified)
[7]
  T/C: 101 % of control
[8]
  T/C: 92 % of control
[9]
  T/C: 90 % of control

## Cc1c2oc3c(C)ccc(C(=O)OCCN4CCOCC4)c3nc-2c(C(=O)OCCN2CCOCC2)c(N)c1=O
dose: 100.0 mg/kg/injection, schedule: Q04DX002 (ip), vehicle: saline
  T/C: 98 % of control
dose: 200.0 mg/kg/injection, schedule: Q04DX002 (ip), vehicle: saline
  T/C: 103 % of control

## c1coc(C2SCSCS2)c1
[2]
  T/C: 105 % of control
[4]
  T/C: 101 % of control
[6]
  T/C: 95 % of control

## c1ccc2c(c1)Cc1cc3ccccc3nc1-2
[7]
  T/C: 106 % of control
[10]
  T/C: 98 % of control
[8]
  T/C: 93 % of control
[11]
  T/C: 90 % of control
[9]
  T/C: 98 % of control

## COC(=O)C1C2CC3C(OC(=O)C31)C2Br (stereo unspecified)
dose: 100.0 mg/kg/injection, schedule: Q01DX001 (ip), vehicle: Klucel (hydroxypropylcellulose) (HPC)
  T/C: 98 % of control
[1]
  T/C: 102 % of control
[2]
  T/C: 104 % of control
dose: 200.0 mg/kg/injection, schedule: Q01DX001 (ip), vehicle: Klucel (hydroxypropylcellulose) (HPC)
  T/C: 103 % of control
[3]
  T/C: 93 % of control
[4]
  T/C: 105 % of control
dose: 400.0 mg/kg/injection, schedule: Q01DX001 (ip), vehicle: Klucel (hydroxypropylcellulose) (HPC)
  T/C: 109 % of control
[5]
  T/C: 94 % of control
[6]
  T/C: 107 % of control

## N/N=C\C(=N/N)C(O)C(O)C(O)C(O)CO (stereo unspecified)
[7]
  T/C: 86 % of control
[8]
  T/C: 88 % of control
[9]
  T/C: 93 % of control

## CCC(C)N1OC1c1ccccc1 (stereo unspecified)
[12]
  T/C: 106 % of control
[13]
  T/C: 103 % of control
dose: 400.0 mg/kg/injection, schedule: Q01DX001 (ip), vehicle: carboxymethylcellulose (CMC)
  T/C: 101 % of control

## Cc1ccc(S(=O)(=O)F)cc1N
dose: 25.0 mg/kg/injection, schedule: Q01DX009 (ip), vehicle: carboxymethylcellulose (CMC)
  T/C: 95 % of control and 100 % of control
dose: 25.0 mg/kg/injection, schedule: Q04DX002 (ip), vehicle: carboxymethylcellulose (CMC)
  T/C: 100 % of control and 106 % of control
dose: 50.0 mg/kg/injection, schedule: Q01DX001 (ip), vehicle: carboxymethylcellulose (CMC)
  T/C: 104 % of control and 87 % of control
dose: 50.0 mg/kg/injection, schedule: Q01DX009 (ip), vehicle: carboxymethylcellulose (CMC)
  T/C: 103 % of control and 88 % of control
dose: 50.0 mg/kg/injection, schedule: Q04DX002 (ip), vehicle: carboxymethylcellulose (CMC)
  T/C: 93 % of control and 100 % of control
dose: 50.0 mg/kg/injection, schedule: Q04DX003 (ip), vehicle: carboxymethylcellulose (CMC)
  T/C: 98 % of control and 90 % of control
[12]
  T/C: 101 % of control and 104 % of control
dose: 100.0 mg/kg/injection, schedule: Q04DX002 (ip), vehicle: carboxymethylcellulose (CMC)
  T/C: 107 % of control and 90 % of control
dose: 100.0 mg/kg/injection, schedule: Q04DX003 (ip), vehicle: carboxymethylcellulose (CMC)
  T/C: 94 % of control and 87 % of control
[13]
  T/C: 106 % of control and 111 % of control
dose: 200.0 mg/kg/injection, schedule: Q04DX003 (ip), vehicle: carboxymethylcellulose (CMC)
  T/C: 96 % of control and 87 % of control

## Cc1cc(CCl)c(Br)cc1CCl
dose: 100.0 mg/kg/injection, schedule: Q04DX002 (ip), vehicle: Klucel (hydroxypropylcellulose) (HPC)
  T/C: 100 % of control
dose: 200.0 mg/kg/injection, schedule: Q04DX002 (ip), vehicle: Klucel (hydroxypropylcellulose) (HPC)
  T/C: 100 % of control
dose: 400.0 mg/kg/injection, schedule: Q04DX002 (ip), vehicle: Klucel (hydroxypropylcellulose) (HPC)
  T/C: 107 % of control

## CSc1ccc(NC(=O)Nc2ccc(Cl)cc2[N+](=O)[O-])cc1
[1]
  T/C: 97 % of control
[3]
  T/C: 91 % of control

## O=c1[nH]cnc2c1nc1n2CCC1
[14]
  T/C: 93 % of control
[15]
  T/C: 90 % of control
[7]
  T/C: 105 % of control
[10]
  T/C: 88 % of control
[8]
  T/C: 102 % of control

## Cc1ccc(N2CCN(CC(O)COc3ccccc3Cl)CC2)cc1 (stereo unspecified)
[16]
  T/C: 95 % of control
[17]
  T/C: 95 % of control
[18]
  T/C: 95 % of control

## CC1(C)N=C(N)N=C(N)N1c1cccc(OCCOc2ccc(NC(=O)CBr)cc2)c1
dose: 50.0 mg/kg/injection, schedule: Q01DX009 (ip), vehicle: saline
  T/C: 124 % of control
[16]
  T/C: 94 % of control
dose: 100.0 mg/kg/injection, schedule: Q01DX009 (ip), vehicle: other
  T/C: 172 % of control
dose: 150.0 mg/kg/injection, schedule: Q01DX009 (ip), vehicle: other
  T/C: 154 % of control
[17]
  T/C: 109 % of control
dose: 200.0 mg/kg/injection, schedule: Q01DX009 (ip), vehicle: other
  T/C: 100 % of control
dose: 200.0 mg/kg/injection, schedule: Q01DX009 (ip), vehicle: saline
  T/C: 97 % of control
[18]
  T/C: 112 % of control

## O=C(/C=N/O)Nc1cc(Cl)c(Cl)cc1Cl
[14]
  T/C: 97 % of control
[15]
  T/C: 94 % of control
[7]
  T/C: 98 % of control
[10]
  T/C: 94 % of control
[8]
  T/C: 103 % of control

## CCCCCCCCC1OC1CCCCCCCC(=O)N1CCN(C)CC1 (stereo unspecified)
dose: 75.0 mg/kg/injection, schedule: Q01DX001 (ip), vehicle: carboxymethylcellulose (CMC)
  T/C: 92 % of control
dose: 150.0 mg/kg/injection, schedule: Q01DX001 (ip), vehicle: carboxymethylcellulose (CMC)
  T/C: 97 % of control
dose: 300.0 mg/kg/injection, schedule: Q01DX001 (ip), vehicle: carboxymethylcellulose (CMC)
  T/C: 91 % of control

## CN(C)c1n[nH]c(N=[N+]=[N-])n1
dose: 100.0 mg/kg/injection, schedule: Q04DX002 (ip), vehicle: saline with Tween-80
  T/C: 104 % of control
dose: 200.0 mg/kg/injection, schedule: Q04DX002 (ip), vehicle: saline with Tween-80
  T/C: 90 % of control
dose: 400.0 mg/kg/injection, schedule: Q04DX002 (ip), vehicle: saline with Tween-80
  T/C: 104 % of control

## COc1ccc(/C=C/C(=O)c2ccc3c(c2)OCO3)cc1OC
[15]
  T/C: 101 % of control
[10]
  T/C: 94 % of control
[11]
  T/C: 95 % of control

## Cc1c(-c2ccccc2Br)nc2ccccc2c1C(=O)O
[16]
  T/C: 96 % of control
[17]
  T/C: 89 % of control

## C(=N\n1cnnc1)/c1ccc(/C=N/n2cnnc2)cc1
[15]
  T/C: 98 % of control
[7]
  T/C: 105 % of control
[10]
  T/C: 88 % of control
[8]
  T/C: 105 % of control
[11]
  T/C: 89 % of control
[9]
  T/C: 98 % of control

## ClCCn1nc2c(c1-c1ccc(Cl)cc1)CCc1ccccc1-2
dose: 100.0 mg/kg/injection, schedule: Q04DX003 (ip), vehicle: gum acacia
  T/C: 92 % of control
dose: 200.0 mg/kg/injection, schedule: Q04DX003 (ip), vehicle: gum acacia
  T/C: 98 % of control
dose: 400.0 mg/kg/injection, schedule: Q04DX003 (ip), vehicle: gum acacia
  T/C: 95 % of control
